{"source": "patent US9732367B2", "about": "“Cell lines” (MEDIMMUNE LIMITED, priority 2012, dated 2017)", "molecules": {"B1": {"name": "PEG-FGF21 (conjugate, UniProt Q9NSA1 29-209, looked up)", "Fibroblast growth factor 21": "HPIPDSSPLLQFGGQVRQRYLYTDDAQQTEAHLEIREDGTVGGAADQSPESLLQLKALKPGVIQILGVKTSRFLCQRPDGALYGSLHFDPEACSFRELLLEDGYNVYQSEAHGLPLHLPGNKSPHRDPAPRGPARFLPLPGLPPALPEPPGILAPQPPDVGSSDPLSMVGPSQGRSPSYAS", "modifications": "PEGylated"}}, "key": {"pylRS": {"target": "T1, pylRS (Methanosarcina mazei, UniProt Q8PWY1)", "T1 construct": "expressed in transfected cells", "T1 sequence (Q8PWY1 whole entry)": "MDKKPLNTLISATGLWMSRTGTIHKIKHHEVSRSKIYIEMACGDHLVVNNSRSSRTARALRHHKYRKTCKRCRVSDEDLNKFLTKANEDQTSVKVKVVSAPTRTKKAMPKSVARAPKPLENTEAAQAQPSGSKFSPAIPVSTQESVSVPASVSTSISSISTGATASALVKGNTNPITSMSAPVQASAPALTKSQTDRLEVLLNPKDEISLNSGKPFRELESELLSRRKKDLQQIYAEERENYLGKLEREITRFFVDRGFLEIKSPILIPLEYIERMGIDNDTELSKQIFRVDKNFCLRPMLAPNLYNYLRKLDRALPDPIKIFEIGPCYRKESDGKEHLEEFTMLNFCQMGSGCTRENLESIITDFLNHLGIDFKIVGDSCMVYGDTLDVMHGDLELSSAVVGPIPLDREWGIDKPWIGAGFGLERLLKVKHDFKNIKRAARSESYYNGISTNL", "experiment": "In vitro GFPY40 functional assay: dnnAA competition with lys azide in HEK293 cells stably expressing pylRS", "format": "cell-based", "conditions": "lys azide with 0.5 mM, 1 mM and 2 mM dnnAA", "description": "Effective dnnAAs were identified by their ability to compete with a high affinity substrate for pylRS (lys-azide) in an in vitro assay, for their ability to reduce background amber suppression levels observed with a reporter protein, and for their ability to improve the viability and function of cells previously selected for high pylRS/tRNA activity.\nTo identify analogues that could effectively compete for pylRS binding with lys-azide, dnnAAs were first tested for function in an in vitro functional assay based on the ability of cells expressing WT pylRS and tRNApyl to introduce a nnAA at a target site in the reporter protein GFPY40. This reporter contains an amber codon in its open reading frame that, in the absence of amber suppression, generates a truncated protein that is not fluorescent. In the event of amber suppression, a full length GFP protein is generated that is detectable by fluorescence detection methods. In this assay, HEK293 cells stably expressing pylRS, were transiently transfected with a tRNA expression construct and the GFPY40 reporter cassette. Cells were then incubated with 0.5 mM lys azide in the presence or absence of different concentrations of dnnAA ranging from 0.5 mM to 2 mM. GFP fluorescence levels were then quantified by flow cytometry. For this assay the proportion of fluorescent cells in each condition was determined and plotted. As the dnnAAs are expected to compete with the nnAA (lys-azide) for pylRS/tRNA binding, an effective dnnAA should reduce or prevent the expression of full length GFP (as described above dnnAAs can be delivered by the tRNA to the amber site, but cannot propagate protein synthesis).\nA similar in vitro assay was used to gauge the effectiveness of the dnnAAs of Formula VIIB listed in Table 1 where a description of the amino acids tested and a summary of the results are shown For this assay the geometric mean fluorescence intensity of each sample was determined by flow cytometry and plotted. For each dnnAA tested control cells transfected with wild type GFP were measured as a positive control. In addition cells transfected with the reporter GFPY40 and exposed to 0.5 mM lys azide or 2 mM lys azide were used to determine maximal GFP expression levels in the absence of an inhibitor. In each case robust GFP expression levels were observed. To test whether any of the dnnAA could reduce the efficacy of GFP expression, cells were incubated in the presence of 0.5 mM, 1 mM and 2 mM […]. […] Thus, dnnAAs of the present invention can compete with the lys-azide nnAA for binding to the pylRS and interfere with the physiological mechanism of nnAA introduction. Cells transfected with the pylRS/tRNA pair and the GFPY40 reporter construct but not exposed to either lys-azide or a dnnAA were used to determine levels of background amber suppression and used as a negative control. In each case low GFP expression levels were observed."}, "[1]": {"test_system": "background amber suppression", "experiment": "Background amber suppression (GFPY40 reporter, pylRS/tRNApyl, dnnAA without nnAA)", "format": "cell-based", "experimental": "The competitive assay for dnnAA inhibition in the presence of a high affinity substrate identified dnnAAs that compete for binding with to the pylRS and thus are specific inhibitors of the pylRS/tRNA. However, the decoy nnAA is intended to reduce the levels of background amber suppression in the absence of nnAA. To determine if background amber suppression levels could be reduced, we incubated cells containing the GFPY40 reporter construct and the pylRS/tRNApyl pair in medium containing one of the dnnAAs. To do this, HEK293 cells stably expressing pylRS were transiently transfected with a tRNA expression construct and the GFPY40 reporter cassette. After 3 days of incubation, cells were assayed for expression of GFP by flow cytometry and geometric mean fluorescence intensity of the samples determined. We have previously observed that cells containing the full complement of the pylRS/tRNA amber suppression system show detectable expression of the GFP reporter construct that is above what is observed in cells lacking the amber suppression system. […] To identify dnnAAs capable of reducing background amber suppression levels the transfected cells were incubated with each of the dnnAAs at 0.5 mM, 1 mM and 2 mM and GFP levels measured by flow cytometry.\nThe decrease in background amber suppression dependent GFP expression was dose dependent and improved as the dnnAA concentration increased. […] This feature is an attractive characteristic for platform development as it enables the repression of background amber suppression but the system can be activated upon addition of a strong pylRS substrate such as lys-azide. […] Their efficacy was quantified by the reduction in GFP expression relative to a control sample (not exposed to dnnAA) and the data are summarized in Table 1."}, "[2]": {"test_system": "CHO cells stably expressing pylRS and tRNApyl and an IgG directed against her2/neu containing an amber codon", "experiment": "Growth and viability of pylRS/tRNApyl cell line treated with lys azide and dnnAA", "format": "cell-based", "conditions": "2 mM dnnAA with 0.5 mM lys-azide", "description": "To examine whether the dnnAAs of the invention could function to improve the viability of cells containing pylRS and tRNApyl we monitored the growth and viability of a cell line, stably expressing pylRS and tRNApyl. For this assay CHO cells stably expressing pylRS and tRNApyl and an IgG directed against her2/neu containing an amber codon in the heavy chain, shown to effectively incorporate nnAA into the expressed IgG thus producing an antibody containing a nnAA, were used for this experiment. Despite a high expression level of pylRS/tRNApyl pair, this cell line has very robust cell growth characteristics when grown in medium lacking nnAA. The presence of a highly expressed target containing an amber codon likely has a protective effect on the cells by supplying them with high levels of amber codons that absorb the amber suppression activity and protects the cells from the effects of background amber suppression at essential genes. However, upon addition of the nnAA (lys-azide) to the growth medium, and activation of the amber suppression machinery, a decrease in cell growth rate is observed. […] To determine whether a dnnAA can rescue this effect, cells cultured in serum free medium were grown to a cell density of 0.5×10^6 cells/mL and subsequently treated with 0.5 mM lys azide alone or in combination with 2 Mm dnnAA. Cell viability and cell numbers were monitored daily over seven days. Cells treated with lys azide alone reached a cell density just below 1×10^6 cells/mL on day 3 after nnAA addition and remained at this density for the remainder of the assay (seven days) (FIG. 15A) The lack of growth was not likely due to loss of viability as the culture retained high viability throughout the experiment (˜70% viable cells) (FIG. 15B) Cultures treated with 2 mM Compound of formula VIIB.4, or 2 mM Formula VIIB.1 in combination with 0.5 mM lys-azide supported continued growth of the culture that reached over 1.5×10^6 cells/mL and retained a cell viability of 90%."}, "platform cell line [3]": {"test_system": "platform cell line", "experiment": "Platform cell line grown with or without dnnAA: cell numbers", "format": "cell-based", "experimental": "(§1) To do this a platform cell line, selected for high activity of the amber suppression machinery was grown in the presence or absence of dnnAA for several passages and subsequently seeded into 96-well plates at ten cells per well and grown in the presence or absence of dnnAA (Formula VIIB.2). Each plate was incubated for several days and cells harvested, pooled and counted. […] This two fold increase in cell numbers may be due to the protective effects of the dnnAA. To examine the activity of the cells grown under these conditions, 0.5×10^6 cells pooled from each plate were seeded into a 6-well plate and transfected with a GFPY40 reporter construct in the absence of dnnAA and with lys-azide. After 24 hours the fluorescence intensity of the cells in each sample was analysed by flow cytometry. The data were gated to include single cells and plotted to display the intensity of each event (scatter plot, FIG. 16). The number of events falling within the top 10% of the GFP intensity spectrum were determined for each sample (Table 2). […] Cells from both groups were also transfected with a construct encoding wild type GFP. The same analyses were performed on this group."}, "platform cell line [4]": {"test_system": "platform cell line", "experiment": "GFPY40 reporter activity of platform cells grown with or without dnnAA (flow cytometry)", "format": "cell-based", "experimental": "as §1"}, "pylRS/tRNA pair": {"target": "T2, pylRS/tRNA pair (Methanosarcina mazei, UniProt Q8PWY1)", "T2 construct": "expressed in transfected cells; host or cells: HEK293 clone 3H7", "T2 sequence (Q8PWY1 whole entry)": "as above", "experiment": "GFP assay: translational testing of pyrrolysine analogs as nnAAs", "format": "cell-based", "conditions": "Formula V analogs, nnAA 2 mM, 2-3 days; for MFI: geometric mean", "description": "An in vitro cell based assay was developed to assess the compatibility of the pylRS/tRNA pair and the pyrrolysine analogs of the present invention (nnAAs) by and the efficiency of nnAAs integration into a target protein. For this, HEK293 cells stably expressing pylRS (3H7) were transiently transfected with plasmids for the expression of tRNApyl and a reporter construct encoding GFPY40 (containing amber codon in place of tyrosine at amino acid residue number 40 (where 1 is the initiator methionine)) using standard transfection protocols. Transfected cells were incubated with nnAAs at 2 mM for 2-3 days GFP production was analyzed qualitatively by visual inspection under the microscope. The GFP fluorescence was quantified by flow cytometry using an Accuri flow cytometer and the geometric mean of the fluorescent cells determined.\nThis cell based assay was used to determine whether the different nnAAs were suitable substrates for the pylRS and allowed its translation into a target protein. Cells expressing the PylRS/tRNApyl pair and containing a vector encoding the GFPY40 reporter gene were incubated in the presence of the nnAAs. nnAAs that are readily utilized by the PylRS/tRNApyl pair support the translation of the nnAA into the amber site of GFP and allow read-through of the gene producing full length GFP (fluorescent protein). The fluorescence intensity of the cells depends on the efficiency of nnAA incorporation. Thus, nnAAs that are poorly utilized produce weakly fluorescent or non-fluorescing cells. […] Furthermore, the relative expression levels in each sample was compared to those generated by substrates known to be efficiently utilized by pylRS."}, "HEK293 c18 cells": {"test_system": "HEK293 c18 cells", "experiment": "MTS viability assay with nnAA titration in cells transfected with pylRS and tRNA", "conditions": "ALOC 5 mM to 0.08 mM, 5 days", "protocol": "Finally, to determine whether amber suppression led to cytostatic effects, 1000 HEK293 c18 cells plates in a 96 well plate and transiently transfected with pCEP4-pylRS and pOriP-9×tRNA constructs. Cells were grown in DMEM-C medium containing a titration of nnAA (ALOC) starting with 5 mM to 0.08 mM. Cell viability was assayed at the time of the transfection, and after 5 days growth using an MTS colorimetric assays (FIG. 4D)."}, "db/db mice": {"test_system": "db/db mice", "experiment": "Fed glucose blood levels in db/db mice", "format": "in vivo, mouse", "conditions": "0.25 mg/Kg daily subcutaneously, day 3", "experimental": "To assess the potency of the PEGylated FGF21 constructs obese, db/db mice were treated daily with 0.25 mg/Kg FGF21 or 20K PEG-FGF21 and glucose levels measured in fed mice after three treatments using a handheld glucose monitor, (FIG. 7B).\nThe homozygous db/db mouse (B6.BKS(D)-Leprdb/j, Jackson labs) is a well characterized animal model for diabetes and becomes obese after 3-4 weeks of age. The animals also display elevated plasma insulin, blood sugar, and delayed wound healing. In this study, 7-8 week old, male db/db mice were fed Lab Diet 5053 Rodent Diet 20 ad libitum. Mice were acclimatized for seven days and subsequently administered PEGylated FGF21, unmodified FGF21 and vehicle (PBS) subcutaneously daily for […].\nEach mouse was administered 0.25 mg/Kg of PEG-FGF21 or unmodified FGF21 daily for three days. Fed glucose blood levels were determined by tail clip bleeding one hour after compound administration on day 3, and glucose levels measured by a handheld glucose meter (Bayer)."}, "[5]": {"conditions": "Tracer (wild type GFP) transfected, sample 6"}}, "note": "Where “and” joins values, the source holds several entries; their conditions need not be identical. Equal values may be shown once.", "data": [{"molecule": "C=CCOC(=O)NCCCCC(=O)O", "note": "[Formula VIIB.2, 5-{[(prop-2-en-1-yloxy)carbonyl]amino}pentanoic acid]", "values": [{"measurement": "reduction of GFP expression relative to samples lacking dnnAA (geometric mean fluorescence intensity)", "setting": "pylRS", "result": "relative reduction in GFP expression was much lower"}, {"measurement": "reduction in background amber suppression levels", "setting": "[1]; dnnAA at 0.5 mM, 1 mM and 2 mM", "result": "reduction in the background amber suppression levels"}, {"measurement": "% Reduction at 2 mM Decoy", "setting": "[1]; reduction in GFP expression relative to control not exposed to dnnAA, 3 days", "result": 57.7, "unit": "%"}, {"measurement": "prevention of cytostatic effects of amber suppression activation", "setting": "[2]", "result": "prevent the cytostatic effects"}, {"measurement": "cell density", "setting": "[2]; seven days", "result": "over 3 ×10^6 cells/mL"}, {"measurement": "cell viability", "setting": "[2]; seven days", "result": "over 90%"}, {"measurement": "increase in cell numbers vs cultures without dnnAA", "setting": "platform cell line [3]", "result": "two fold"}, {"measurement": "cell numbers", "setting": "platform cell line [3]; 96-well plates, ten cells per well, grown in dnnAA", "result": "3.0 ×10^6 cells/mL and 3.7 ×10^6 cells/mL"}, {"measurement": "Top 300 (GM)", "setting": "platform cell line [4]; GFPY40 reporter with lys-azide, 24 hours, cells previously grown with decoy", "result": "1142 and 1149 and 1135"}, {"measurement": "# events in top gate", "setting": "platform cell line [4]; GFPY40 reporter, top 10% of GFP intensity, cells previously grown with decoy", "result": "175 and 179 and 171"}, {"measurement": "# events in top gate", "setting": "platform cell line [4]; [5]", "result": 59}, {"measurement": "Top 300 (GM)", "setting": "platform cell line [4]; [5]", "result": 529}]}, {"molecule": "C=CCOC(=O)NCCCC[C@H](N)C(=O)O", "note": "[Formula V.3, (2S)-2-amino-6-{[(prop-2-en-1-yloxy)carbonyl]amino}hexanoic acid]", "values": [{"measurement": "Positive GFP", "setting": "pylRS/tRNA pair", "result": "Yes"}, {"measurement": "MFI", "setting": "pylRS/tRNA pair", "result": "2,250,000"}, {"measurement": "MFI", "setting": "pylRS/tRNA pair; listed as V.3", "result": 2250000}, {"measurement": "effect on cell viability/growth", "setting": "HEK293 c18 cells", "result": "cytotstatic effect"}]}, {"molecule": "B1", "values": [{"measurement": "glucose level maintenance vs placebo", "setting": "db/db mice", "result": "improved glucose level maintenance as compared to placebo controls"}, {"measurement": "potency on fed glucose blood levels", "setting": "db/db mice", "result": "same potency of wild type FGF21"}]}]}
